Patent US8835470B2, “Mandelamide heterocyclic compounds” (Bristol-Myers Squibb Company, priority 2010, dated 2014)
Where a name gives a salt, the structure may show the parent alone.

Key:
S1P1 [1] = target: T1, S1P1 (Homo sapiens (Human), UniProt P21453); assay: S1P1 Binding Assay; details: membranes from CHO cells expressing human S1P1; 33P-S1P ligand; rounded to two digits
Protocol: Membranes were prepared from CHO cells expressing human S1P1. Cells were dissociated in buffer containing 20 mM HEPES, pH 7.5, 50 mM NaCl, 2 mM EDTA and Protease Inhibitor cocktail (Roche), and disrupted on ice using the Polytron homogenizer. The homogenate was centrifuged at 20,000 rpm (48,000 G) and the supernatant was discarded. The membrane pellets were resuspended in buffer containing 50 mM HEPES, pH 7.5, 100 mM NaCl, 1 mM MgCl2, 2 mM EDTA and stored in aliquots at −80° C. after protein concentration determination. Membranes (2 μg/well) and 0.03 nM final concentration of ^33P-S1P ligand (1 mCi/ml, American Radiolabeled Chemicals) were added to the compound plates. Binding was performed for 45 minutes at room temperature, terminated by collecting the membranes onto GF/B filter plates, and radioactivity was measured by TOPCOUNT®. The competition data of the test compounds over a range of concentrations was plotted as percentage inhibition of radioligand specific binding. The IC50 is defined as the concentration of competing ligand needed to reduce specific binding by 50%.
The results in Table A were rounded to two digits.

S1P1 [2] = target: T1, S1P1; assay: Receptor [35S] GTPγS Binding Assay, S1P1; type: biochemical; details: for EC50: membranes from S1P1/CHO cells, [35S]GTP; for GTPγS S1P3/S1P1: ratio of GTPγS S1P3 EC50 to GTPγS S1P1 EC50, * and ** S1P3 value at detection limit
Protocol: (§1) Receptor [35S] GTPγS Binding Assays
(§2) Membranes prepared from S1P1/CHO cells or EDG3-Ga15-bla HEK293T cells were added to the compound plate (40 μl/well, final protein 3 μg/well) with MULTIDROP®. [^35S]GTP (1250 Ci/mmol, Perkin Elmer) was diluted in assay buffer: 20 mM HEPES, pH7.5, 10 mM MgCl2, 150 mM NaCl, 1 mM EGTA, 1 mM DTT, 10 μM GDP, 0.1% fatty acid free BSA, and 10 μg/ml Saponin to 0.4 nM. 40 μl of the [^35S] GTP solution was added to the compound plate with a final concentration of 0.2 nM. The reaction was kept at room temperature for 45 min. At the end of incubation, all the mixtures in the compound plate were transferred to a 384 well FB filter plates via GPCR robot system. The filter plate was washed with water 4 times by using the modified manifold Embla plate washer and dried at 60° C. for 45 min. 30 μl of MicroScint 20 scintillation fluid was added to each well for counting at Packard TOPCOUNT®.
A larger value for the GTPγS S1P3 EC50 value indicated less activity in the GTPγS S1P3 binding assay.

S1P3 = S1P3 (Homo sapiens (Human), UniProt Q99500); assay: Receptor [35S] GTPγS Binding Assay, S1P3; type: biochemical; details: membranes from EDG3-Ga15-bla HEK293T cells; * detection limit 62,500 nM, ** detection limit 32,500 nM
Protocol: as §1
as §2, with “Compounds were loaded in a 384 FALCON® v-bottom plate (0.5 μl/well in a 3-fold dilution). Membranes” for “Membranes”, “TOPCOUNT®. EC50 is defined as the agonist concentration that corresponds to 50% of the Ymax (maximal response) obtained for each individual compound tested.” for “TOPCOUNT®.”
A smaller value for GTPγS S1P1 EC50 value indicated greater activity for the compound in the GTPγS S1P1 binding assay. A larger value for the GTPγS S1P3 EC50 value indicated less activity in the GTPγS S1P3 binding assay.

T1 sequence (P21453 whole entry): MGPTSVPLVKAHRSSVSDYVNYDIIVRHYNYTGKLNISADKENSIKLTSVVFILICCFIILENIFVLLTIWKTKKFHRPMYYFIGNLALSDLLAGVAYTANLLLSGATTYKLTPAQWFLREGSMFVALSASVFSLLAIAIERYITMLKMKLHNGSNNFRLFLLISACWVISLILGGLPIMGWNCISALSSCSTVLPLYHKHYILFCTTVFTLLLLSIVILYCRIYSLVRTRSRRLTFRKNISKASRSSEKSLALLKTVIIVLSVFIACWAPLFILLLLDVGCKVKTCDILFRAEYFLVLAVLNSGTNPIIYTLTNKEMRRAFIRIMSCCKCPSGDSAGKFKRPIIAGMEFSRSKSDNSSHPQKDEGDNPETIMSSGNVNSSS
Chain of S1P3 (Q99500 whole entry): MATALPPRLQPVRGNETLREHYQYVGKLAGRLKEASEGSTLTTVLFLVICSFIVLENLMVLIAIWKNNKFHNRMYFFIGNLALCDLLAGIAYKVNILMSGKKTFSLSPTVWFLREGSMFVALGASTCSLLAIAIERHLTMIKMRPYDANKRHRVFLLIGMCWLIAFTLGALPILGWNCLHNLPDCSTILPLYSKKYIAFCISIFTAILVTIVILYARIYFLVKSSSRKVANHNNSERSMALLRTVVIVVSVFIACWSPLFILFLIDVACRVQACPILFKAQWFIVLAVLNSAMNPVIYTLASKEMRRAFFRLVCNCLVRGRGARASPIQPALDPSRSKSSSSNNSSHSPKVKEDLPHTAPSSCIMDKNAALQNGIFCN

Structure (SMILES) | IC50 (S1P1 [1]) | EC50 (S1P1 [2]) | GTPγS S1P3/S1P1 (S1P1 [2]) | EC50 (S1P3)
Cn1cccc1CNC(=O)C(O)c1ccc(-c2noc(-c3onc(-c4ccccc4)c3C(F)(F)F)n2)cc1 (racemic) [Example 132, (R/S)-2-hydroxy-N-((1-methyl-1H-pyrrol-2-yl)methyl)-2-(4-(5-(3-phenyl-4-(trifluoromethyl)isoxazol-5-yl)-1,2,4-oxadiazol-3-yl)phenyl)acetamide] | 42 nM | 636 nM | 27 | 17100 nM
O=C(NCc1cnco1)C(O)c1ccc(-c2noc(-c3onc(-c4ccccc4)c3C(F)(F)F)n2)cc1 (racemic) [Example 126, (R/S)-2-hydroxy-N-(oxazol-5-ylmethyl)-2-(4-(5-(3-phenyl-4-(trifluoromethyl)isoxazol-5-yl)-1,2,4-oxadiazol-3-yl)phenyl)acetamide] | 2.1 nM | 13.6 nM | 1484 | 20200 nM
CCNC(=O)C(O)c1ccc(-c2noc(-c3cnn(-c4ccccc4)c3C(F)(F)F)n2)cc1 (racemic) [Example 61, (R/S)-N-Ethyl-2-hydroxy-2-(4-(5-(1-phenyl-5-(trifluoromethyl)-1H-pyrazol-4-yl)-1,2,4-oxadiazol-3-yl)phenyl)acetamide] | 8.5 nM | 34.2 nM | > 1827* | > 62500 nM
O=C(NCC1CCCN1)C(O)c1ccc(-c2noc(-c3onc(-c4ccccc4)c3C(F)(F)F)n2)cc1 (racemic) [Example 88, (R/S)-2-Hydroxy-2-(4-(5-(3-phenyl-4-(trifluoromethyl)isoxazol-5-yl)-1,2,4-oxadiazol-3-yl)phenyl)-N-(pyrrolidin-2-ylmethyl)acetamide, TFA] | 29 nM | 102 nM | 58 | 5940 nM
CC(C)(C)OC(=O)NCCNC(=O)C(O)c1ccc(-c2noc(-c3onc(-c4ccccc4)c3C(F)(F)F)n2)cc1 (racemic) [Example 51, (R/S)-tert-Butyl 2-(2-hydroxy-2-(4-(5-(3-phenyl-4-(trifluoromethyl)isoxazol-5-yl)-1,2,4-oxadiazol-3-yl)phenyl)acetamido)ethylcarbamate] | 31 nM | 89.4 nM |  | 13600 nM
O=C(O)CCNC(=O)C(O)c1ccc(-c2noc(-c3onc(-c4ccccc4)c3C(F)(F)F)n2)cc1 (racemic) [Example 22, (R/S)-3-(2-Hydroxy-2-(4-(5-(3-phenyl-4-(trifluoromethyl)isoxazol-5-yl)-1,2,4-oxadiazol-3-yl)phenyl)acetamido)propanoic acid] | 29 nM | 103 nM | > 604* | > 62500 nM
Cc1nnc(CNC(=O)C(O)c2ccc(-c3noc(-c4onc(-c5ccccc5)c4C(F)(F)F)n3)cc2)o1 (single isomer, unassigned) [Example 10, 2-Hydroxy-N-((5-methyl-1,3,4-oxadiazol-2-yl)methyl)-2-(4-(5-(3-phenyl-4-(trifluoromethyl)isoxazol-5-yl)-1,2,4-oxadiazol-3-yl)phenyl)acetamide] | 2 nM | 4.7 nM | 2795 | 13100 nM
O=C(NCc1ccccn1)C(O)c1ccc(-c2noc(-c3cnn(-c4ccccc4)c3C(F)(F)F)n2)cc1 (racemic) [Example 137, (R/S)-2-hydroxy-2-(4-(5-(1-phenyl-5-(trifluoromethyl)-1H-pyrazol-4-yl)-1,2,4-oxadiazol-3-yl)phenyl)-N-(pyridin-2-ylmethyl)acetamide] | 4.9 nM | 41.4 nM | 267 | 11000 nM
O=C(NC1CCC1)C(O)c1ccc(-c2noc(-c3onc(-c4ccccc4)c3C(F)(F)F)n2)cc1 (racemic) [Example 116, (R/S)-N-Cyclobutyl-2-hydroxy-2-(4-(5-(3-phenyl-4-(trifluoromethyl)isoxazol-5-yl)-1,2,4-oxadiazol-3-yl)phenyl)acetamide] |  |  | > 387* | > 62500 nM
O=C(NC1CNC1)C(O)c1ccc(-c2noc(-c3onc(-c4ccccc4)c3C(F)(F)F)n2)cc1 (single isomer, unassigned) [Example 30, N-(Azetidin-3-yl)-2-hydroxy-2-(4-(5-(3-phenyl-4-(trifluoromethyl)isoxazol-5-yl)-1,2,4-oxadiazol-3-yl)phenyl)acetamide-TFA] | 4.5 nM | 50.9 nM | > 614** | > 31200 nM
CNC(=O)[C@H](CCc1ccccc1)NC(=O)C(O)c1ccc(-c2noc(-c3onc(-c4ccccc4)c3C(F)(F)F)n2)cc1 (mixture of isomers) [Example 26, (R/S)-(2S)-2-(2-Hydroxy-2-(4-(5-(3-phenyl-4-(trifluoromethyl)isoxazol-5-yl)-1,2,4-oxadiazol-3-yl)phenyl)acetamido)-N-methyl-4-phenylbutanamide] | 910 nM | 4280 nM | 1.4 | 6200 nM
CNC(=O)[C@H](C)NC(=O)C(O)c1ccc(-c2noc(-c3onc(-c4ccccc4)c3C(F)(F)F)n2)cc1 (mixture of isomers) [Example 32, (R/S)-2-(2-Hydroxy-2-(4-(5-(3-phenyl-4-(trifluoromethyl)isoxazol-5-yl)-1,2,4-oxadiazol-3-yl)phenyl)acetamido)-N-methyl(S)propanamide] | 2.6 nM | 1.5 nM | 10707 | 16100 nM
CCN(C)C(=O)C(O)c1ccc(-c2noc(-c3onc(-c4ccccc4)c3C(F)(F)F)n2)cc1 (racemic) [Example 24, (R/S)-N-Ethyl-2-hydroxy-N-methyl-2-(4-(5-(3-phenyl-4-(trifluoromethyl)isoxazol-5-yl)-1,2,4-oxadiazol-3-yl)phenyl)acetamide] | 350 nM | 1050 nM | > 60* | > 62500 nM
O=C(NC[C@@H]1CCCC[C@H]1O)C(O)c1ccc(-c2noc(-c3cnn(-c4ccccc4)c3C(F)(F)F)n2)cc1 (mixture of isomers) [Example 152, (R/S)-2-hydroxy-N-(((1S,2R)-2-hydroxycyclohexyl)methyl)-2-(4-(5-(1-phenyl-5-(trifluoromethyl)-1H-pyrazol-4-yl)-1,2,4-oxadiazol-3-yl)phenyl)acetamide] | 260 nM | 517 nM | 22 | 11200 nM
O=C(NCCO)C(O)c1ccc(-c2noc(-c3noc(-c4ccccc4)c3C(F)(F)F)n2)cc1 (racemic) [Example 62, (R/S)-2-Hydroxy-N-(2-hydroxyethyl)-2-(4-(5-(5-phenyl-4-(trifluoromethyl)isoxazol-3-yl)-1,2,4-oxadiazol-3-yl)phenyl)acetamide] | 3.2 nM | 12.6 nM | 731 | 9210 nM
O=C(NCc1nc2ccccc2[nH]1)C(O)c1ccc(-c2noc(-c3onc(-c4ccccc4)c3C(F)(F)F)n2)cc1 (racemic) [Example 90, (R/S)-N-((1H-Benzo[d]imidazol-2-yl)methyl)-2-hydroxy-2-(4-(5-(3-phenyl-4-(trifluoromethyl)isoxazol-5-yl)-1,2,4-oxadiazol-3-yl)phenyl)acetamide] | 13 nM | 31.5 nM | 171 | 5380 nM
